Experiment [1] has as its system EB-3 (Burkitt's Lymphoma). Briefly: combination Emax (second highest fraction inhibited in the dose matrix, 72 h); higher = more inhibition; extreme values may be limits of the assay. In short, it runs like this:
(§1)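 Bliss excess equals the observed combination effect minus the expected value EA + EB − EA·EB, where EA and EB are the effects of each agent alone. Combination Emax is the second-highest inhibition within the matrix. Inhibition was scaled from CellTiter-Glo 2.0 luminescence, with 0 set by vehicle wells and 1 by blank wells, after 72 hours of two-drug dosing of cells plated in 1536-well plates.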

The next experiment relates to CHL-1 (Melanoma). The description is as above. The gist of the method: as §1
In experiment [2] the test system is OVTOKO (Ovarian Carcinoma). Described as above. The gist of the method:
as §1

Experiment [3] concerns HTC-C3 (Thyroid Gland Carcinoma). The experiment is described as above. The gist of the method: as §1
The next experiment deals with 786-0 (Kidney Carcinoma). The experiment is described as above. The gist of the method: as §1
Experiment [4] concerns FLO-1 (Esophageal Adenocarcinoma). The experiment is described as above. The gist of the method:
as §1

Experiment [5] deals with SNU-175 (Colorectal Carcinoma). Described as above. The gist of the method:
as §1

Experiment [6] concerns NCI-H1623 (Lung Adenocarcinoma). The experiment is described as above. In short, it runs like this: as §1
The subject of experiment [7] is NCI-H1563 (Lung Adenocarcinoma). The experiment is described as above. In short, it runs like this: as §1
In experiment [8] the test system is NCI-H1755 (Lung Adenocarcinoma). The experiment is described as above. In short, it runs like this: as §1
Experiment [9] concerns NKM-1 (Acute Myeloid Leukemia). Described as above. The gist of the method: as §1
The subject of experiment [10] is Caov-3 (Ovarian Carcinoma). The description is as above. In short, it runs like this:
as §1

Experiment [11] relates to RL95-2 (Endometrial Carcinoma). Described as above. In short, it runs like this: as §1
Experiment [12] concerns LOUCY (T-Lymphoblastic Leukemia). Described as above. The gist of the method: as §1
For experiment [13], the system named is BALL-1 (B-Lymphoblastic Leukemia). The experiment is described as above. In short, it runs like this: as §1
Experiment [14] has as its system COLO-684 (Endometrial Carcinoma). Described as above. In short, it runs like this:
as §1

Experiment [15] deals with OCI-AML5 (Acute Myeloid Leukemia). The description is as above. In short, it runs like this: as §1
The test system of experiment [16] is RPMI-8866 (Chronic Myelogenous Leukemia). Described as above. In short, it runs like this:
as §1

In experiment [17] the test system is NKM-1 (Acute Myeloid Leukemia). Put plainly: Bliss excess, mean over the matrix (fraction); higher = more synergy. The gist of the method: as §1
Another experiment relates to HuO-3N1 (Osteosarcoma). Described as above. In short, it runs like this:
as §1

This is an account of results in the supplement of paper PMC11061612.

Turning to `CC1(C)CCC(CN2CCN(c3ccc(C(=O)NS(=O)(=O)c4ccc(NCC5CCOCC5)c([N+](=O)[O-])c4)c(Oc4cnc5[nH]ccc5c4)c3)CC2)=C(c2ccc(Cl)cc2)C1` [Venetoclax] + C[C@@H]1COCCN1C2=NC(=NC(=C2)C3(CC3)[S@](=N)(=O)C)C4=C5C=CNC5=NC=C4 [AZD6738] (first compound max 1 µM, 7x7, partner max 10 µM), the “combination Emax” value was found to be 0.6 in experiment [1]; 0.879 in the experiment with CHL-1 (Melanoma); 0.566 in experiment [2]; 0.674 in [3]; 0.712 in the experiment with 786-0 (Kidney Carcinoma); 0.559 in experiment [4]. The “combination Emax” value in experiment [5] was determined as 0.658; in experiment [6] it was 0.827; in experiment [7], 0.307; in experiment [8], 0.828; in experiment [9] it was 1; in experiment [10], 0.794. Further, the “combination Emax” value is 0.691 in [11]; 1 in experiment [12]; 1 in experiment [13]; 0.753 in experiment [14]; 1 in experiment [15]; 0.958 in experiment [16]. Also, the results for the Bliss excess (in experiment [17]; with HuO-3N1 (Osteosarcoma)) were -0.0143 and -0.0375, respectively.

As for `CC1(C)CCC(CN2CCN(c3ccc(C(=O)NS(=O)(=O)c4ccc(NCC5CCOCC5)c([N+](=O)[O-])c4)c(Oc4cnc5[nH]ccc5c4)c3)CC2)=C(c2ccc(Cl)cc2)C1` [Venetoclax] + C[C@@H](Nc1cc(F)cc(F)c1)c1cc(C(=O)N(C)C)cc2c(=O)cc(N3CCOCC3)oc12 [AZD8186] (first compound max 1 µM, 7x7, partner max 3 µM), the “combination Emax” value in experiment [1] was found to be 0.198; with CHL-1 (Melanoma), 0.147; in experiment [2] it was 0.521; in [3] it was 0.149; in the experiment with 786-0 (Kidney Carcinoma) it was 0.267; in experiment [4], 0.543. Also, the “combination Emax” value came to 0.171 in experiment [5]; 0.378 in experiment [6]; 0.431 in experiment [7]; 0.588 in [8]; 1 in experiment [9]; 0.797 in experiment [10]. The “combination Emax” value in experiment [11] came to 0.106; in [12], 1; in experiment [13], 1; in [14], 0.529; in experiment [15], 1; in experiment [16] it was 0.594. The Bliss excess in experiment [17] came to 0.0937; with HuO-3N1 (Osteosarcoma), 0.0158.

`CC1(C)CCC(CN2CCN(c3ccc(C(=O)NS(=O)(=O)c4ccc(NCC5CCOCC5)c([N+](=O)[O-])c4)c(Oc4cnc5[nH]ccc5c4)c3)CC2)=C(c2ccc(Cl)cc2)C1` [Venetoclax] + Cc1cc2ncnn2cc1Nc1ncc2c(n1)n(C1CCOCC1)c(=O)n2C [AZD7648] (first compound max 1 µM, 7x7, partner max 10 µM): the “combination Emax” value in [1] is 0.477; in the experiment with CHL-1 (Melanoma) it was 0.215; in experiment [2], 0.381; in [3], 0.205; in the experiment on 786-0 (Kidney Carcinoma), 0.136; in experiment [4], 0.249. Besides, the “combination Emax” value in experiment [5] amounted to 0.131; in experiment [6], 0.371; in experiment [7], 0.391; in [8], 0.534; in experiment [9], 0.959; in experiment [10] it was 0.528. Besides, the “combination Emax” value in experiment [11] came to 0.194; in [12], 1; in experiment [13], 1; in experiment [14] it was 0.349; in experiment [15], 0.943; in experiment [16] it was 0.316. Moreover, the Bliss excess turned out to be 0.0323 in experiment [17] and 0.044 with HuO-3N1 (Osteosarcoma).

For `CC1(C)CCC(CN2CCN(c3ccc(C(=O)NS(=O)(=O)c4ccc(NCC5CCOCC5)c([N+](=O)[O-])c4)c(Oc4cnc5[nH]ccc5c4)c3)CC2)=C(c2ccc(Cl)cc2)C1` [Venetoclax] + Cn1cnc2c(F)c(Nc3ccc(Br)cc3Cl)c(C(=O)NOCCO)cc21 [Selumetinib] (first compound max 1 µM, 7x7, partner max 3 µM), the “combination Emax” value amounted to 0.154 in [1]; 0.0922 in the experiment on CHL-1 (Melanoma); 0.163 in [2]; 0.508 in experiment [3]; 0.16 with 786-0 (Kidney Carcinoma); 0.319 in [4]. The “combination Emax” value in [5] was 0.313; in [6], 0.256; in experiment [7] it was 0.242; in experiment [8], 0.636; in experiment [9] it was 0.975; in experiment [10] it was 0.603. Moreover, the “combination Emax” value was found to be 0.332 in [11]; 1 in experiment [12]; 1 in experiment [13]; 0.0813 in [14]; 1 in experiment [15]; 0.293 in experiment [16]. Besides, the Bliss excess is 0.0456 in experiment [17] and -0.011 with HuO-3N1 (Osteosarcoma).
